Blank lines part the entries; values can stand above or below the compound they belong to.
Columns and labels:
Aβ1-42 = Aβ1-42 (Homo sapiens, UniProt P05067); assay: FRET assay of Aβ1-42 oligomer (ADDL) assembly; assay type: biochemical; details: for IC50: FRET assay of Example 1, formation of neurotoxic ADDLs
Excerpt: Fluorescence (or Förster) Resonance Energy Transfer (FRET) is a distance-dependent, non-radiative transfer of energy in which the de-excitation of one fluorophore (donor) is coupled to excitation of another fluorophore (acceptor). FRET occurs if (1) the quantum of energy emitted by a donor fluorophore corresponds to an acceptor fluorophore's excitation energy, (2) the orientations of donor and acceptor transition dipoles are nearly parallel and (3) the donor fluorescent emission spectrum overlaps the acceptor absorption spectrum.
In this assay, Aβ1-42 oligomer formation is monitored by FRET using N-terminal conjugates of fluorescein-Aβ1-42 as both the donor and acceptor fluorophore (fluorescein-fluorescein Ro˜45 Å). […] Inhibition of Aβ1-42 assembly is observed as the absence or attenuation of fluorescein quenching.
FRET and FP assays are performed in 384-well Corning Non-Binding Surface, black, opaque microtiter plates, and the assay buffer consists of 50 mM MOPS-Tris (pH 8.0) with 100 mM MgCl2. The assay volume, containing 0.2 μM FITC-Aβ(1-42) and 0.8 μM Aβ(1-42), is 50 μl and the temperature is 37° C. ADDL assembly is monitored on a Tecan GENios Pro plate reader, exciting at a wavelength of 485 nm and detecting emission at a wavelength of 515 nm. Kinetic traces are collected by recording fluorescence intensity and polarization readings every five minutes over about three to about a six-hour time course. […] Positive control reactions contain all buffer components in the absence of added small molecule or antibody reagents. To test for ADDL assembly inhibition, the non-peptidic compound was incubated with the peptide mixture at six concentrations from about 30 μM decreasing to about 0.05 μM.
Test Compound A appears as compound 7 in Table 1.

[1] = cited from earlier work
Aβ1-42 ADDLs = target: T1, Aβ1-42 ADDLs (Homo sapiens, UniProt P05067); assay: Alternating Lever Cyclic Ratio (ALCR) rat model; assay type: in vivo; details: for Approach Errors Mean / Perseveration Errors Mean: base line error rate equalized to 1.00; for error rates versus baseline: given alone
T1 construct: Synthetic Aβ1-42 powder was dissolved in 1,1,1,3,3,3 hexafluorisopropanol (HFIP); host or cells: chemically synthesised peptide
T1 sequence (P05067 672-713 limits assumed): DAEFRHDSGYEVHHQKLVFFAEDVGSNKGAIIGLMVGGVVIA
Protocol: Preparations of Aβ1-42 ADDLs and a potential therapeutic compounds under the Alternating Lever Cyclic Ratio (ALCR) rat model of AD were tested. This highly sensitive model has been able to detect cognitive deficits due to direct injection of cell-derived Aβ oligomers into rat brain. In this study, a direct injection of ADDLs made from synthetic Aβ1-42 and a putative therapeutic compound under the ALCR procedure were tested.
The ALCR test has proven to be much more sensitive than previously published methods for measuring drug effects on cognitive function. In this task, rats must learn a complex sequence of lever-pressing requirements in order to earn food reinforcement in a two-lever experimental chamber. Subjects must alternate between two levers by switching to the other lever after pressing the first lever enough to get food reward. The exact number of presses required for each food reward changes, first increasing from 2 responses per food pellet up to 56 presses per food pellet, then decreasing back to 2 responses per pellet. Intermediate values were based on the quadratic function, x^2−x. One cycle was an entire ascending and descending sequence of these lever press requirements (e.g., 2, 6, 12, 20, 30, 42, 56, 56, 42, 30, 20, 12, 6, and 2 presses per food reward). Six such full cycles were presented during each daily session.
Synthetic Aβ1-42 powder was dissolved in 1,1,1,3,3,3 hexafluorisopropanol (HFIP) to afford a solution of Aβ1-42 in HFIP of about 1 mM and allowed to incubate at ambient temperature for about 1 h. The resulting solution was chilled on ice for about 5-10 min, then aliquoted into eppendorf tubes to provide about 50 μl of solution per tube. The tubes were then placed in a chemical fume hood and allowed to stand overnight to allow the HFIP to evaporate under a slow stream of nitrogen. To removed final traces of HFIP, the tubes were subjected to two SpeedVac cycles of 15 min at room temperature and about 15 to 25 in Hg of vacuum. The resulting films of monomerized Aβ1-42 peptide were stored over desiccant at −80° C. until used.
A tube of monomerized Aβ1-42 peptide was warmed to room temperature and the Aβ1-42 peptide was dissolved in anhydrous DMSO to afford a peptide stock DMSO solution containing about 10 μM to about 100 μM Aβ1-42 peptide in DMSO.
2 μl of a 20 mM stock solution of test compound in anhydrous DMSO is added to 998 μl of neural basal media (phenol red free, Gibco 12348-017) to give a compound neural basal media solution containing 40 μM of test compound in neural basal media.
For the Aβ1-42 peptide only treatment, peptide stock DMSO solution is added to 37° C. neural basal to obtain the requisite Aβ1-42 peptide monomer concentration, provided that the maximum concentration of DMSO is 1% or less, and the tube is vortexed for 30 to 60 seconds, spun down briefly in a microfuge and incubated at 37° C. for 15 min prior to the start of injections.
For the Aβ1-42 peptide plus test compound treatment, peptide stock DMSO solution is added to 37° C. compound neural basal media solution to obtain the requisite Aβ1-42 peptide monomer concentration, provided that the maximum concentration of DMSO is 1% or less, and the tube is vortexed for 30 to 36 seconds, spun down briefly in a microfuge and incubated at 37° C. for 15 min prior to the start of injections.
For control injections, compound neural basal media solution is incubated at 37° C. for 15 min prior to the start of injections.
Rats: Rats were trained under ALCR until their error rates were stable. Once the rats were placed upon the final ALCR procedure, training sessions were conducted 7 days each week until the end of the study.
Surgery: All rats received a single 28 ga cannula, which was permanently affixed to the skull, and aimed at the lateral ventricle. Half the rats received cannula in the right ventricle and half received cannula in the left ventricle. Rats were allowed 5 days to recover from surgery before training resumed. […]

[2] = cited from earlier work; remark: listed apart in the source
[3] = compound combined with Aβ1-42 ADDLs
[4] = injectate alone, 20 μl via ventricular cannula, tested about 3 hours after injection

Chain of Aβ1-42 (P05067 672-713 limits assumed): as above

Compound: CCOC(=O)c1c(NC(=O)C(=O)N/N=C/c2ccccc2O)sc2c1CCC(C)C2 (centres unmarked) [Compound 7, 2-{[1-(2-Hydroxyphenyl)-meth-(E)-ylidene-hydrazinooxalyl]-amino}-6-methyl-4,5,6,7-tetrahydro-benzo[b]thiophene-3-carboxylic acid ethyl ester]
inhibition of Aβ1-42 oligomer assembly (Aβ1-42; 1 mM Aβ1-42 total monomer, 100 mM MgCl2, compound 0.05 to 3 mM (so in the source), FIG. 1): dose dependent inhibition of Aβ1-42 oligomer assembly

Compound: Cn1nccc1C(=O)C/C(=N/NC(=O)c1ccccc1O)C(F)(F)F [Compound 1, 2-Hydroxy-benzoic acid [3-oxo-3-(1-methyl-1H-pyrazol-5-yl)-1-trifluoromethyl-prop-(Z)-ylidene]-hydrazide]
IC50 (Aβ1-42): 17.7 µM

Compound: Oc1c(I)cc(Cl)c2cccnc12 [Clioquinol]
patients' cognitive ability ([1]; compared to untreated patients): stabilize the patients' cognitive ability | Aβ1-42 levels in plasma ([1]; patients' plasma): lower Aβ1-42 levels

Compound: COc1ccc(NC(=O)C(=O)N2N=C(CCC(C)C)CC2(O)C(F)(F)F)cc1 (centres unmarked) [Compound 21, 2-(5-hydroxy-3-isopentyl-5-(trifluoromethyl)-4,5-dihydro-1H-pyrazol-1-yl)-N-(4-methoxyphenyl)-2-oxoacetamide]
IC50 (Aβ1-42): 6.4 µM

Approach Errors Mean (Aβ1-42 ADDLs; [3]): 1.00 | Perseveration Errors Mean (Aβ1-42 ADDLs; [3]): 0.92 | error rates versus baseline (Aβ1-42 ADDLs): did not increase error rates | Approach Errors Mean (Aβ1-42 ADDLs; [4]): 0.96 | Perseveration Errors Mean (Aβ1-42 ADDLs; [4]): 0.95
Compound: O=C(N/N=C/c1c(O)ccc2ccccc12)c1ccccc1O [Compound 24, (E)-2-hydroxy-N′-((2-hydroxynaphthalen-1-yl)methylene)benzohydrazide]
effect on ADDL-induced increase in Perseveration Errors (Aβ1-42 ADDLs; combined with the requisite concentration of Aβ1-42 ADDLs): eliminated the increase in Perseveration Errors

Compound: Aβ1-42 ADDLs: ADDLs made from synthetic Aβ1-42; soluble, oligomeric, globular, non-fibrillar, neurotoxic Aβ1-42 peptides [reference compound]
error rates versus baseline (Aβ1-42 ADDLs): significantly increased Perseveration Error rate | Approach Errors Mean (Aβ1-42 ADDLs; [4]): 1.02 | Perseveration Errors Mean (Aβ1-42 ADDLs; [4]): 1.33

Compound: NCCCS(=O)(=O)O [Alzhemed, 3-amino-1-propanesulfonic acid]
blocking of Aβ1-42 monomer assembly into Aβ oligomers (Aβ1-42; standard FRET assay conditions of Example 1, FIG. 2): inability of the compound Alzhemed to inhibit Aβ1-42 monomer assembly into Aβ oligomers | cognitive decline ([2]; 20 month open-label extension of Phase II trial, patients with mild AD): slowed cognitive decline in some patients | efficacy ([2]; blinded phase of the Phase II study): no efficacy was observed

Source: US8962677B2, “Methods of restoring cognitive ability using non-peptidic compounds” (Acumen Pharmaceuticals, Inc., priority 2007, dated 2015)
